Assay: molar heat capacity at constant pressure; wn = mass fraction of the nth substance listed
Conditions: Small (less than 1 g) adiabatic calorimetry

CCCCn1cc[n+](C)c1.[Br-] [1-butyl-3-methylimidazolium bromide] + O
Crystal
Conditions	molar heat capacity at constant pressure [J/K/mol]
257.1 K, w2 = 0.0169	211.52
257.12 K, w2 = 0.00482	207.32
257.24 K, w2 = 0.0495	210.08
257.33 K, w2 = 0.0051	208.6
257.89 K, w2 = 0.00482	208.45
258.27 K, w2 = 0.0051	209.35
258.32 K, w2 = 0.00482	208.23
258.68 K, w2 = 0.00482	208.41
258.78 K, w2 = 0.0169	213.4
259.16 K, w2 = 0.0169	213.8
259.51 K, w2 = 0.0495	213.48
259.61 K, w2 = 0.0051	210.47
259.93 K, w2 = 0.0051	210.82
259.98 K, w2 = 0.00482	210.49
260.24 K, w2 = 0.00482	209.97
260.65 K, w2 = 0.00482	210.2
260.87 K, w2 = 0.0169	215.76
260.94 K, w2 = 0.0051	211.8
261.22 K, w2 = 0.0169	216.33
261.77 K, w2 = 0.0495	217.08
262.06 K, w2 = 0.00482	211.93
262.28 K, w2 = 0.0051	212.88
262.52 K, w2 = 0.0051	213.06
262.95 K, w2 = 0.0169	218.39
262.98 K, w2 = 0.00482	212.09
263.28 K, w2 = 0.0169	218.78
263.78 K, w2 = 0.0051	214.35
264.01 K, w2 = 0.0495	220.81
264.14 K, w2 = 0.00482	213.82
265.04 K, w2 = 0.0169	221.03
265.12 K, w2 = 0.0051	215.36
265.24 K, w2 = 0.0051	215.65
265.32 K, w2 = 0.00482	214.05
265.34 K, w2 = 0.0169	221.47
266.23 K, w2 = 0.0495	224.56
266.24 K, w2 = 0.00482	216.31
266.58 K, w2 = 0.0051	216.86
267.13 K, w2 = 0.0169	223.7
267.4 K, w2 = 0.0169	224.14
267.66 K, w2 = 0.00482	216.04
267.71 K, w2 = 0.0051	217.69
268.43 K, w2 = 0.0495	228.48
269.22 K, w2 = 0.0169	226.58
269.45 K, w2 = 0.0169	226.98
270 K, w2 = 0.00482	218.06
270.31 K, w2 = 0.0051	220.13
270.61 K, w2 = 0.0495	232.41
271.3 K, w2 = 0.0169	229.49
271.51 K, w2 = 0.0169	229.82
272.34 K, w2 = 0.00482	220.16
272.91 K, w2 = 0.0051	222.62
273.18 K, w2 = 0.0495	242
273.57 K, w2 = 0.0169	232.77
275.36 K, w2 = 0.00482	223.11
275.51 K, w2 = 0.0051	225.17
275.62 K, w2 = 0.0169	235.94
276.24 K, w2 = 0.0495	247.28
277.2 K, w2 = 0.00482	225.01
278.11 K, w2 = 0.0051	227.74
279.23 K, w2 = 0.0169	242.23
279.26 K, w2 = 0.0495	254.65
279.32 K, w2 = 0.00482	227.27
279.78 K, w2 = 0.00482	229.54
280.71 K, w2 = 0.0051	230.48
281.42 K, w2 = 0.00482	229.46
282.24 K, w2 = 0.0495	262.55
283.31 K, w2 = 0.0051	233.23
283.5 K, w2 = 0.00482	230.68
284.39 K, w2 = 0.0169	251.43
285.17 K, w2 = 0.0495	271.18
285.58 K, w2 = 0.00482	233.7
285.91 K, w2 = 0.0051	236.24
287.66 K, w2 = 0.00482	235.67
288.14 K, w2 = 0.0495	280.22
288.51 K, w2 = 0.0051	239.25
289.53 K, w2 = 0.0169	262.01
289.74 K, w2 = 0.00482	238.04
290.97 K, w2 = 0.0495	290.4
291.11 K, w2 = 0.0051	242.54
291.83 K, w2 = 0.00482	240.73
293.7 K, w2 = 0.0051	246.11
293.74 K, w2 = 0.0495	300.57
293.9 K, w2 = 0.00482	243.2
294.65 K, w2 = 0.0169	274.42
295.05 K, w2 = 0.00482	246.53
295.98 K, w2 = 0.00482	245.88
296.3 K, w2 = 0.0051	249.8
296.46 K, w2 = 0.0495	310.98
298.06 K, w2 = 0.00482	248.83
298.89 K, w2 = 0.0051	253.84
299.11 K, w2 = 0.0495	321.36
299.76 K, w2 = 0.0169	289.83
300.14 K, w2 = 0.00482	252.27
301.49 K, w2 = 0.0051	258.28
301.7 K, w2 = 0.0495	332.6
303.76 K, w2 = 0.00482	260.04
304.07 K, w2 = 0.0051	263.07
304.21 K, w2 = 0.0495	344.68
306.66 K, w2 = 0.0051	268.79
306.66 K, w2 = 0.0495	358.21
309.04 K, w2 = 0.0495	371.9
309.23 K, w2 = 0.0051	274.95
311.81 K, w2 = 0.0051	281.91
314.38 K, w2 = 0.0051	289.81

101 kPa, Liquid
Conditions	molar heat capacity at constant pressure [J/K/mol]
258.42 K, w2 = 0.0495	201.89
260.51 K, w2 = 0.0495	202.44
262.59 K, w2 = 0.0495	203.15
264.68 K, w2 = 0.0495	203.66
266.76 K, w2 = 0.0495	204.28
268.85 K, w2 = 0.0495	204.83
271.36 K, w2 = 0.0495	205.69
274.29 K, w2 = 0.0495	206.48
277.23 K, w2 = 0.0495	207.26
280.16 K, w2 = 0.0495	208.13
283.1 K, w2 = 0.0495	209.06
286.03 K, w2 = 0.0495	209.95
288.97 K, w2 = 0.0495	210.91
291.91 K, w2 = 0.0495	211.72
294.84 K, w2 = 0.0495	212.72
297.78 K, w2 = 0.0495	213.47
300.72 K, w2 = 0.0495	214.41
303.65 K, w2 = 0.0495	215.41
306.59 K, w2 = 0.0495	216.44
309.53 K, w2 = 0.0495	217.39
312.47 K, w2 = 0.0495	218.35
315.41 K, w2 = 0.0495	219.31
321.27 K, w2 = 0.0495	221.21
330.56 K, w2 = 0.0495	224.12
333.86 K, w2 = 0.0495	225.96
337.13 K, w2 = 0.0495	227.18
340.39 K, w2 = 0.0495	228.38
343.64 K, w2 = 0.0495	229.51
346.87 K, w2 = 0.0495	230.63
350.08 K, w2 = 0.0495	232.05
352.35 K, w2 = 0.0169	289.81
353.26 K, w2 = 0.0495	232.65
355.87 K, w2 = 0.0051	320.97
356.41 K, w2 = 0.0495	233.93
357.85 K, w2 = 0.00482	320.3
358.14 K, w2 = 0.0169	293.37
358.58 K, w2 = 0.0051	322.63
361.53 K, w2 = 0.0495	236.39
363.43 K, w2 = 0.0169	295.6
364.71 K, w2 = 0.0495	237.6
367.1 K, w2 = 0.00482	323.63
367.89 K, w2 = 0.0495	238.53

Reference: the NIST ThermoML archive (doi:10.1016/j.jct.2006.05.008)
